Like-named read-outs stand apart in the source and are kept apart here. One block for each molecule: values may come before it. Ends that are not written are not given here.
Tests used:
[1] = target: T1, purified HLA DRB1*0701 (Homo sapiens, UniProt P01903+P01911, A100R/A102G/A103Q/D57E/D86V/E43K/F76Y/K127E/L162R/M171V/P40G/Q125H/Q99D/R33Q/R42Y/R54Q/S133A/S66F/T210M/V115G/Y107V/Y59L/Y89S); assay: HLA-DR radioligand binding inhibition assay, DRB1*0701
T1 construct: MHC molecules utilized were purified from EBV transformed homozygous cell lines or single MHC allele transfected 721.221, C1R, or fibroblast lines; made in house; host or cells: EBV transformed homozygous cell lines or single MHC allele transfected 721.221, C1R, or fibroblast lines
Description: (§1) Fifteen distinct HLA-DR molecules were used in quantitative assays to measure the binding of peptides to solubilized HLA-DR molecules. […] Briefly, columns of inactivated Sepharose CL4B and Protein A Sepharose were used as pre-columns. HLA-DR molecules were captured by passage of lysates over LB3.1 monoclonal antibody (anti-HLA-DRA) columns. Antibody columns were washed with 10 mM Tris-HCL, pH8.0 with 1% (v/v) NP-40, followed by PBS containing 0.4% (w/v) n-octylglucoside.
(§2) Briefly, 1-10 nM of radiolabeled peptide was co-incubated for 2 days at either room temperature or 37° C. with 1 μM to 1 nM purified HLA-DR molecules in the presence of a cocktail of protease inhibitors. Assays were performed at various pH conditions, ranging from pH 4 to pH 7. […] After incubation, the percentage of HLA-DR-bound radioactivity is determined by capturing HLA-DR/peptide complexes on Optiplates (Packard Instruments, Meriden, Conn.) coated with the LB3.1 antibody and determining bound counts per minute using the TopCount microscintillation counter (Packard Instruments).

[2] = test system: short term T cell lines; assay: IFN-γ ELISpot analysis of short term T cell lines (natural processing); assay type: cell-based, human; settings: T cell lines respond to peptide and protein fragment; FIGS. 5, 6
[3] = test system: patient-derived PBMC; assay: 10-day interferon-gamma ELIspot on PBMC of patients and healthy donors; assay type: cell-based, human; settings: for % = Percent of patients with responses: ELIspot, patients with either breast or ovarian cancer
Description: Enzyme-linked immunosorbent spot assay.
An interferon-gamma ELIspot assay was used to assess immunity to the indiscriminate binding peptides in 48 patients with either breast or ovarian cancer and 18 healthy controls.
Using an ELIspot assay with a limit of detection of approximately 1:100,000 antigen-specific T cells per million PBMC, patient-derived PBMC were screened for reactivity against all of the HLA-DR binding peptides.

[4] = target: T2, purified HLA DRB1*0401 (Homo sapiens, UniProt P01903+P01911, A100K/A169T/F76Y/I96L/K127E/L162R/M171V/N62H/P40V/Q125Y/R42H/S133A/S149N/S66Y/V115G/V209L/W38E); assay: HLA-DR radioligand binding inhibition assay, DRB1*0401; settings: read-out: IC50 to purified HLA DRB1*0401; purified HLA DRB1*0401
T2 construct: MHC molecules utilized were purified from EBV transformed homozygous cell lines or single MHC allele transfected 721.221, C1R, or fibroblast lines; made in house; host or cells: EBV transformed homozygous cell lines or single MHC allele transfected 721.221, C1R, or fibroblast lines
Description: as §1, with “n-octylglucoside. […] The pH was reduced to 8.0 and the eluates were concentrated by centrifugation in Centriprep 30 concentrators at 2000 rpm (Amicon, Beverly, Mass.).” for “n-octylglucoside.”
as §2, with “Instruments). […] Competitor peptides are tested in 2-4 complete, independent experiments, at concentrations ranging from 30 μg/mL to 300 pg/mL.” for “Instruments).”

[5] = target: T3, purified HLA DRB1*0405 (Homo sapiens, UniProt P01903+P01911, A100R/A169T/D86S/F76Y/I96L/K127E/L162R/M171V/N62H/P40V/Q125Y/R42H/S133A/S149N/S66Y/V115G/V209L/W38E); assay: HLA-DR radioligand binding inhibition assay, DRB1*0405
T3 construct: MHC molecules utilized were purified from EBV transformed homozygous cell lines or single MHC allele transfected 721.221, C1R, or fibroblast lines; made in house; host or cells: EBV transformed homozygous cell lines or single MHC allele transfected 721.221, C1R, or fibroblast lines
Description: as §1, with “n-octylglucoside. […] The pH was reduced to 8.0 and the eluates were concentrated by centrifugation in Centriprep 30 concentrators at 2000 rpm (Amicon, Beverly, Mass.).” for “n-octylglucoside.”
as §2, with “Instruments). […] Competitor peptides are tested in 2-4 complete, independent experiments, at concentrations ranging from 30 μg/mL to 300 pg/mL.” for “Instruments).”

[6] = target: T4, purified HLA DRB5*0101 (Homo sapiens, UniProt P01903+Q30154); assay: HLA-DR radioligand binding inhibition assay, DRB5*0101
T4 construct: MHC molecules utilized were purified from EBV transformed homozygous cell lines or single MHC allele transfected 721.221, C1R, or fibroblast lines; made in house; host or cells: EBV transformed homozygous cell lines or single MHC allele transfected 721.221, C1R, or fibroblast lines
Description: as §1, with “n-octylglucoside. […] The pH was reduced to 8.0 and the eluates were concentrated by centrifugation in Centriprep 30 concentrators at 2000 rpm (Amicon, Beverly, Mass.).” for “n-octylglucoside.”
as §2, with “Instruments). […] Competitor peptides are tested in 2-4 complete, independent experiments, at concentrations ranging from 30 μg/mL to 300 pg/mL.” for “Instruments).”

[7] = target: T5, purified HLA DRB1*0404 (Homo sapiens, UniProt P01903+P01911, A100R/A169T/F76Y/I96L/K127E/L162R/M171V/N62H/P40V/Q125Y/R42H/S133A/S149N/S66Y/V209L/W38E); assay: HLA-DR radioligand binding inhibition assay, DRB1*0404
T5 construct: MHC molecules utilized were purified from EBV transformed homozygous cell lines or single MHC allele transfected 721.221, C1R, or fibroblast lines; made in house; host or cells: EBV transformed homozygous cell lines or single MHC allele transfected 721.221, C1R, or fibroblast lines
Description: as §1, with “n-octylglucoside. […] The pH was reduced to 8.0 and the eluates were concentrated by centrifugation in Centriprep 30 concentrators at 2000 rpm (Amicon, Beverly, Mass.).” for “n-octylglucoside.”
as §2, with “Instruments). […] Competitor peptides are tested in 2-4 complete, independent experiments, at concentrations ranging from 30 μg/mL to 300 pg/mL.” for “Instruments).”

Molecule: CC[C@H](C)[C@H](NC(=O)[C@H](C)NC(=O)[C@@H](NC(=O)[C@@H]1CCCN1C(=O)[C@@H](NC(=O)[C@@H](N)CCCCN)[C@@H](C)CC)C(C)C)C(=O)N[C@@H](CCCCN)C(=O)N[C@H](C(=O)N[C@@H](CC(C)C)C(=O)N[C@@H](CCCNC(=N)N)C(=O)N[C@@H](CCC(=O)O)C(=O)N[C@@H](CC(N)=O)C(=O)N[C@H](C(=O)N[C@@H](CO)C(=O)N1CCC[C@H]1C(=O)O)[C@@H](C)O)C(C)C [Peptide 1622.03]
IC50 [1]: > 20 µM

Molecule: CC(C)C[C@H](NC(=O)[C@H](CO)NC(=O)[C@H](C)NC(=O)[C@H](CC(N)=O)NC(=O)[C@@H](NC(=O)[C@@H]1CCCN1C(=O)[C@H](CC(C)C)NC(=O)[C@H](Cc1ccc(O)cc1)NC(=O)[C@@H](NC(=O)[C@H](CC(C)C)NC(=O)[C@H](CCC(=O)O)NC(=O)[C@H](CC(C)C)NC(=O)[C@@H](N)CC(N)=O)[C@@H](C)O)[C@@H](C)O)C(=O)N[C@@H](CO)C(=O)N[C@@H](Cc1ccccc1)C(=O)O [Peptide 9019.0030]
naturally processed and presented antigen [2]: naturally processed and presented antigens
% = Percent of patients with responses [3]: 15%

Molecule: CC[C@H](C)[C@H](NC(=O)[C@H](CC(=O)O)NC(=O)[C@H](CCCCN)NC(=O)[C@H](Cc1c[nH]c2ccccc12)NC(=O)[C@H](CC(C)C)NC(=O)[C@@H](NC(=O)[C@@H](NC(=O)[C@H](CC(=O)O)NC(=O)[C@H](CCC(N)=O)NC(=O)[C@H](Cc1ccc(O)cc1)NC(=O)[C@H](CS)NC(=O)[C@H](CC(C)C)NC(=O)[C@H](CCC(N)=O)NC(=O)[C@@H]1CCCN1C(=O)[C@@H](N)CC(N)=O)[C@@H](C)O)[C@@H](C)CC)C(=O)O [Peptide 9019.0041]
IC50 [1]: > 20 µM

Molecule: CC(C)C[C@H](NC(=O)[C@@H](NC(=O)[C@H](CS)NC(=O)[C@H](CO)NC(=O)CNC(=O)[C@@H](NC(=O)[C@H](CC(=O)O)NC(=O)[C@@H](NC(=O)[C@@H](N)CO)[C@@H](C)O)C(C)C)[C@@H](C)O)C(=O)N[C@H](C(=O)N[C@@H](CS)C(=O)N1CCC[C@H]1C(=O)N[C@@H](CC(C)C)C(=O)N[C@@H](Cc1c[nH]cn1)C(=O)N[C@@H](CC(N)=O)C(=O)O)C(C)C [Peptide 9019.0043]
IC50 [4]: > 20 µM

Molecule: CC[C@H](C)[C@H](NC(=O)[C@@H]1CCCN1)C(=O)N[C@@H](CCCCN)C(=O)N[C@@H](Cc1c[nH]c2ccccc12)C(=O)N[C@@H](CCSC)C(=O)N[C@@H](C)C(=O)N[C@@H](CC(C)C)C(=O)N[C@@H](CCC(=O)O)C(=O)N[C@@H](CO)C(=O)N[C@H](C(=O)N[C@@H](CC(C)C)C(=O)N[C@@H](CCCNC(=N)N)C(=O)N[C@@H](CCCNC(=N)N)C(=O)N[C@@H](CCCNC(=N)N)C(=O)N[C@@H](Cc1ccccc1)C(=O)O)[C@@H](C)CC [Peptide 9019.0087]
naturally processed and presented antigen [2]: naturally processed and presented antigens
% = Percent of patients with responses [3]: 25%
fraction of patients that had mean T cell values above the cutoff ([3]; FIG. 1, cutoff = mean and two standard deviations of normal healthy individuals): 25%

Molecule: CC(C)C[C@H](NC(=O)[C@@H]1CCCN1C(=O)[C@H](CO)NC(=O)[C@@H]1CCCN1C(=O)[C@H](CC(=O)O)NC(=O)[C@H](Cc1c[nH]cn1)NC(=O)[C@@H](NC(=O)[C@@H]1CCCN1C(=O)[C@H](CC(C)C)NC(=O)[C@H](CO)NC(=O)[C@H](CCC(N)=O)NC(=O)[C@H](CC(C)C)NC(=O)CNC(=O)[C@H](CCCCN)NC(=O)[C@H](C)N)[C@@H](C)O)C(=O)O [Peptide 9019.0098]
IC50 [6]: > 20 µM

Molecule: CSCC[C@H](NC(=O)[C@H](CCCNC(=N)N)NC(=O)[C@H](C)NC(=O)CN)C(=O)N1CCC[C@H]1C(=O)N[C@@H](CS)C(=O)N[C@@H](C)C(=O)N[C@@H](CCC(=O)O)C(=O)N[C@@H](CC(C)C)C(=O)N[C@H](C(=O)N[C@@H](CCCNC(=N)N)C(=O)N[C@@H](CCC(=O)O)C(=O)N1CCC[C@H]1C(=O)NCC(=O)N[C@@H](CS)C(=O)O)C(C)C [Peptide 9019.0181]
IC50 ([7]; read-out: IC50 to purified HLA DRB1*0404, purified HLA DRB1*0404): 13.1 µM
IC50 ([5]; read-out: IC50 to purified HLA DRB1*0405, purified HLA DRB1*0405): > 20 µM

Molecule: CC[C@H](C)[C@H](NC(=O)[C@H](Cc1c[nH]cn1)NC(=O)[C@H](CC(C)C)NC(=O)[C@H](CO)NC(=O)[C@H](Cc1ccc(O)cc1)NC(=O)[C@H](CC(C)C)NC(=O)[C@H](Cc1c[nH]cn1)NC(=O)[C@H](CCC(=O)O)NC(=O)[C@H](CC(C)C)NC(=O)[C@@H]1CCCN1C(=O)CNC(=O)[C@H](CCCNC(=N)N)NC(=O)[C@@H](N)CCC(=O)O)C(=O)N1CCC[C@H]1C(=O)N[C@@H](CC(N)=O)C(=O)O [Peptide 9019.0190]
naturally processed and presented antigen [2]: naturally processed peptides
% = Percent of patients with responses [3]: 23%

Other lines, results leading:

IC50 [5]: > 20 µM
Molecule: CC[C@H](C)[C@H](NC(=O)[C@H](CCCCN)NC(=O)[C@H](CCC(N)=O)NC(=O)[C@@H](N)CCC(N)=O)C(=O)N[C@@H](CCCNC(=N)N)C(=O)N[C@@H](CCCCN)C(=O)N[C@@H](Cc1ccc(O)cc1)C(=O)N[C@H](C(=O)N[C@@H](CCSC)C(=O)N[C@@H](CCCNC(=N)N)C(=O)N[C@@H](CCCNC(=N)N)C(=O)N[C@@H](CC(C)C)C(=O)N[C@@H](CC(C)C)C(=O)N[C@@H](CCC(N)=O)C(=O)N[C@@H](CCC(=O)O)C(=O)O)[C@@H](C)O [Peptide 9019.0070]

IC50 [5]: 11.2 µM
Molecule: CC(C)C[C@H](NC(=O)[C@H](CC(=O)O)NC(=O)[C@H](CCCNC(=N)N)NC(=O)[C@@H](N)Cc1c[nH]cn1)C(=O)N[C@@H](C)C(=O)N[C@@H](C)C(=O)N[C@@H](CCCNC(=N)N)C(=O)N[C@@H](CC(N)=O)C(=O)N[C@H](C(=O)N[C@@H](CC(C)C)C(=O)N[C@H](C(=O)N[C@@H](CCCCN)C(=O)N[C@@H](CO)C(=O)N1CCC[C@H]1C(=O)N[C@@H](CC(N)=O)C(=O)O)C(C)C)C(C)C [Peptide 9019.0085]

IC50 [7]: 13.1 µM
Molecule: CC(C)C[C@H](NC(=O)[C@@H]1CCCN1C(=O)[C@@H](NC(=O)[C@@H](NC(=O)[C@@H]1CCCN1C(=O)[C@H](CC(=O)O)NC(=O)[C@H](CCC(=O)O)NC(=O)[C@H](CO)NC(=O)[C@H](Cc1ccc(O)cc1)NC(=O)[C@H](CCCNC(=N)N)NC(=O)[C@H](CCC(N)=O)NC(=O)[C@@H](N)CC(C)C)[C@@H](C)O)C(C)C)C(=O)N1CCC[C@H]1C(=O)N[C@@H](CO)C(=O)N[C@@H](CCC(=O)O)C(=O)O [Peptide 9019.0099]

IC50 [6]: 10.2 µM
Molecule: CC[C@H](C)[C@H](NC(=O)[C@@H](NC(=O)[C@H](Cc1ccc(O)cc1)NC(=O)CN)C(C)C)C(=O)NCC(=O)N[C@H](C(=O)N[C@@H](CCC(N)=O)C(=O)N[C@@H](CCC(N)=O)C(=O)N[C@@H](C)C(=O)N[C@H](C(=O)N1CCC[C@H]1C(=O)NCC(=O)N1CCC[C@H]1C(=O)N[C@@H](C)C(=O)N[C@@H](Cc1ccc(O)cc1)C(=O)O)[C@@H](C)O)[C@@H](C)O [Peptide 9019.0110]

IC50 [1]: 13.2 µM
Molecule: GDPLNNTTPVTGASP [Peptide 9019.0036]

Source: US10556943B2, “HLA-DR binding peptides and their uses” (priority 2007, dated 2020)
